ChEMBL document CHEMBL1122915, “Synthesis and biological activity of carboxylic acid replacement analogues of the potent angiotensin converting enzyme inhibitor 5(S)-benzamido-4-oxo-6-phenylhexanoyl-L-proline” (J Med Chem, 1985)
pIC50: −log10 of the molar value.

Target: T1, Angiotensin-converting enzyme (Rattus norvegicus, UniProt P47820)
T1 sequence (P47820 whole entry): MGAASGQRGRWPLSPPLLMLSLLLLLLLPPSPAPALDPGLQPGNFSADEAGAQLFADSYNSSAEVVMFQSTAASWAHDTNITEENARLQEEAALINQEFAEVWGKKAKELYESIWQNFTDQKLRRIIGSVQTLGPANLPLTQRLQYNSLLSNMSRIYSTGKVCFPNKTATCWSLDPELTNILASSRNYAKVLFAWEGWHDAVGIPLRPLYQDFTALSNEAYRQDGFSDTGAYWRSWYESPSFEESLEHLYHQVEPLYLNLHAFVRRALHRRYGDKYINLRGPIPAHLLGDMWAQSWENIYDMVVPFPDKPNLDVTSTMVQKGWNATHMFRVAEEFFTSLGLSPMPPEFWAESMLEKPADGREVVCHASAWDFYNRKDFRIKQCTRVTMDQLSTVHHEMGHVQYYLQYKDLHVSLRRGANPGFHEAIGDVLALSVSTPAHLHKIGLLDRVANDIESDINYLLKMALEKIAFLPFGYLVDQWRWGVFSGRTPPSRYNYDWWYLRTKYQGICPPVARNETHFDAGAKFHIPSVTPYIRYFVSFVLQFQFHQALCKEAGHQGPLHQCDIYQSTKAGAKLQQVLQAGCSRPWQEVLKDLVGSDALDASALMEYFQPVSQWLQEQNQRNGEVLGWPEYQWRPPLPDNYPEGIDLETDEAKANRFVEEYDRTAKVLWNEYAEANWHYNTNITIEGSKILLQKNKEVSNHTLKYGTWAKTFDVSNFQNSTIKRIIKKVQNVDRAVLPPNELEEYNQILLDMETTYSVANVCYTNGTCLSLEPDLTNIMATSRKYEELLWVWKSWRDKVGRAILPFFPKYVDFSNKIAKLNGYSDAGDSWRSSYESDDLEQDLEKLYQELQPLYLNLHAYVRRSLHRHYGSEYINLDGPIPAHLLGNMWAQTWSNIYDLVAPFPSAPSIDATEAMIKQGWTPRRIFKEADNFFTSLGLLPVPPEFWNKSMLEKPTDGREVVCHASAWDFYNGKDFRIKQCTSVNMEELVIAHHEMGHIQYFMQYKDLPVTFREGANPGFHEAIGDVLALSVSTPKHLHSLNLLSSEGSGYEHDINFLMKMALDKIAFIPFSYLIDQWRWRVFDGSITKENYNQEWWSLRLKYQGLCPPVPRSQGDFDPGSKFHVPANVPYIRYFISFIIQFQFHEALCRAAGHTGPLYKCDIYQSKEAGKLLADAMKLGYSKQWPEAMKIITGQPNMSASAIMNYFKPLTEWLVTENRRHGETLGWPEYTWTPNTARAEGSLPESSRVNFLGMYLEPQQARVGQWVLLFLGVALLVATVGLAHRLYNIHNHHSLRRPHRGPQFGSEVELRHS
Experiment: In vivo inhibitory activity against Angiotensin I converting enzyme was evaluated in renal hypertensive rats
Assay type: organism-based
Conditions: read-out: I50

SMILES	pIC50
O=C(O)[C@@H]1CCCN1C(=O)CCS	6.70
C[C@@H](CS)C(=O)N1CCC[C@H]1c1nn[nH]n1	6.59
O=C(CCS)N1CCCC1P(=O)(O)O (centres undefined)	5.77
C[C@@H](CS)C(=O)N1CCC[C@H]1C(=O)NO	7.66
